Laboratory results: ChEMBL document CHEMBL2074394, “Multispecific organic anion transporter is responsible for the biliary excretion of the camptothecin derivative irinotecan and its metabolites in rats” (J Pharmacol Exp Ther, 1997)

How the values were obtained:
[1] = target: T1, ATP-binding cassette sub-family C member 2 (Rattus norvegicus, UniProt Q63120); test: TP_TRANSPORTER: inhibition of DNP-SG uptake in bile canalicular membrane vesicles from SD rat; type: functional, cell membranes, Sprague-Dawley, Bile canalicular membrane vesicle
T1 sequence (Q63120 whole entry): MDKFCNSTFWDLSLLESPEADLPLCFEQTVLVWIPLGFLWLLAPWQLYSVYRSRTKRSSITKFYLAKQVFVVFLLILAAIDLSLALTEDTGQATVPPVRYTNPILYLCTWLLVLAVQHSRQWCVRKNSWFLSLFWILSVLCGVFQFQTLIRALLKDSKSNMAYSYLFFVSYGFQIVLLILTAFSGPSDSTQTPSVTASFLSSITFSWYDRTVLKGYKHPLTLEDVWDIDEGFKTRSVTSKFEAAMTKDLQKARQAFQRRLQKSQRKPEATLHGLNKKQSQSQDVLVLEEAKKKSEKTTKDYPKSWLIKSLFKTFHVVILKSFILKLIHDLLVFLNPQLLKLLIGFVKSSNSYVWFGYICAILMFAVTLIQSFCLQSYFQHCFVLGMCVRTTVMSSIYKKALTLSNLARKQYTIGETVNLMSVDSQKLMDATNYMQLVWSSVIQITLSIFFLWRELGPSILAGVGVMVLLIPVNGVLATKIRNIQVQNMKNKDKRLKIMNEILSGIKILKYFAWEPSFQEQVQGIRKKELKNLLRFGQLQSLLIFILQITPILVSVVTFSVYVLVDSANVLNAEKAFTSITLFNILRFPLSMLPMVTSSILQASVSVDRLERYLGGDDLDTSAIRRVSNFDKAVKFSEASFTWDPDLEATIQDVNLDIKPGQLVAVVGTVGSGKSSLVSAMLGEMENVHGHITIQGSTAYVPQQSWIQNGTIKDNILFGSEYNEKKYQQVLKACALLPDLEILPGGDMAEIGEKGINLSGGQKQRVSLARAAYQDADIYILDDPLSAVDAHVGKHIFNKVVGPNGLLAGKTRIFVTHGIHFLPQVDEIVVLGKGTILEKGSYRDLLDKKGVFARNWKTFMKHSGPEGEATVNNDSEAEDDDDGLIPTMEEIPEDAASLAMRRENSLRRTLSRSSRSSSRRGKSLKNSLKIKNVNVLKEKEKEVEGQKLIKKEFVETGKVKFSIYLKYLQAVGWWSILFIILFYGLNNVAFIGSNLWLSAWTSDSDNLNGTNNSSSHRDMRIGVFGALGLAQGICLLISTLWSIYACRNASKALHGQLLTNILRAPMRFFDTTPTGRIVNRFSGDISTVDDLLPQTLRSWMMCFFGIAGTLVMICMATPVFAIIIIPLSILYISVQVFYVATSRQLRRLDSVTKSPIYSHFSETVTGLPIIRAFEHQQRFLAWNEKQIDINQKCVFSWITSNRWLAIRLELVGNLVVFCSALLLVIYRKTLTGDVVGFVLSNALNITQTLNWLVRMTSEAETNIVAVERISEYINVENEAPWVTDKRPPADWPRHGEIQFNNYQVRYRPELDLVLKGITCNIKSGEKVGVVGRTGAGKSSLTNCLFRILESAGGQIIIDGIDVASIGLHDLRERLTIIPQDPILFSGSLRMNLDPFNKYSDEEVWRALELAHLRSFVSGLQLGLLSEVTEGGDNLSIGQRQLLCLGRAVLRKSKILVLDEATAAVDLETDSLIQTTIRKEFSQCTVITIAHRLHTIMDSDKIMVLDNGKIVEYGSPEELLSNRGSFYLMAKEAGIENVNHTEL

[2] = target: T1, ATP-binding cassette sub-family C member 2; test: TP_TRANSPORTER: uptake in bile canalicular membrane vesicles (EHBR); type: functional, cell membranes, Bile canalicular membrane vesicle
[3] = target: T1, ATP-binding cassette sub-family C member 2; test: TP_TRANSPORTER: uptake in bile canalicular membrane vesicles (SD); type: functional, cell membranes, Sprague-Dawley, Bile canalicular membrane vesicle
[4] = target: T1, ATP-binding cassette sub-family C member 2; test: TP_TRANSPORTER: uptake in canalicular membrane vesicles of liver (EHBR); type: functional, cell membranes, Canalicular membrane vesicle
[5] = target: T1, ATP-binding cassette sub-family C member 2; test: TP_TRANSPORTER: uptake in canalicular membrane vesicles of liver (SD); type: functional, cell membranes, Sprague-Dawley, Canalicular membrane vesicle

With `CCc1c2c(nc3ccc(OC[C@@H]4O[C@H](C(=O)O)[C@@H](O)[C@H](O)[C@H]4O)cc13)-c1cc3c(c(=O)n1C2)COC(=O)[C@]3(O)CC` the Ki [1] was 1.62 µM, the Activity [2] was “substrate [+]” and the Activity [3] was “substrate [+]”.

`CCc1c2c(nc3ccc(O)cc13)-c1cc([C@@](O)(CC)C(=O)O)c(CO)c(=O)n1C2` was tested, and the Ki [1] was 18.3 µM, the Activity [2] was “substrate [+]” and the Activity [3] was “substrate [+]”.

For `CCc1c2c(nc3ccc(OC(=O)N4CCC(N5CCCCC5)CC4)cc13)-c1cc([C@@](O)(CC)C(=O)O)c(CO)c(=O)n1C2`, the Ki [1] was 96.6 µM, the Activity [4] was “substrate [+]” and the Activity [5] was “substrate [+]”.

`CCc1c2c(nc3ccc(O[C@@H]4O[C@H](C(=O)O)[C@@H](O)[C@H](O)[C@H]4O)cc13)-c1cc([C@@](O)(CC)C(=O)O)c(CO)c(=O)n1C2` was tested, and the Ki [1] was 1.03 µM, the Activity [2] was “substrate [+]” and the Activity [3] was “substrate [+]”.
